Literature values in patent publication US20050215455A1, “Surfactants in powdered form that can be used in tablets or gelatin capsules; preparation process and compositions containing them” (priority 2004, published 2005).
Converted amounts (≈) assume the structure as drawn.

Question: For `Cn1c(=O)c2[nH]cnc2n(C)c1=O` [Theophylline], which Solubility in water is on record?
Answer: 8 µg/mL (≈ 44.4 µM)
